This is an account of results in patent US20220204497A1, “NOVEL COMPOUND HAVING ANTICANCER ACTIVITY, AND METHOD FOR PRODUCING SAME” (MEDICINAL BIOCONVERGENCE RESEARCH CENTER, priority 2019, published 2022).

One data set addresses T1, AIMP2-DX2 (Homo sapiens, UniProt Q13155).
T1 sequence (Q13155 1-251 isoform Q13155-2): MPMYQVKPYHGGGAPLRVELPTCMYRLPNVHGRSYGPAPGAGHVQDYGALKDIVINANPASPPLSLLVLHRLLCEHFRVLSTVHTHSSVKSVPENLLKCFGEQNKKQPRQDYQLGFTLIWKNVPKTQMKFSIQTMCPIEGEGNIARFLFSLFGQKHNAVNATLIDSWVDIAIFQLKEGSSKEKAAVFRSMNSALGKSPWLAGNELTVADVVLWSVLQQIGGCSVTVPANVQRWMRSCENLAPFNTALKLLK
Kind of data set: DX2-nanoluciferase assay (DX2 expression change) in transfected A549 cells. The following applies: inhibitory effect on AIMP2-DX2 expression; for inhibition at 40 µM: A549, 4 h, read-out: DX-Nanoluciferase activity (40 μM), 40 μM, 4 hours treatment, A549 cells transfected with nanoluciferase-DX2; for DX-Nanoluciferase activity (40 μM): 4 hours treatment, A549 cells transfected with nanoluciferase-DX2.

For the next data set, the system named is A549 cells. Kind of data set: Cell viability by MTT method in A549 cells. The following applies: 72 hours treatment. The class given is cell-based. Set-up: concentration or dose not given beside the values. On the technique in general: Tetrazolium assays rely on reduction of a dye to a coloured formazan, in cell work by metabolically active cells.

Procedure for AIMP2-DX2: After cloning DX2 into a plasmid expressing nanoluciferase, the plasmid was transfected into A549 cells. Transfected cells were seeded 1×10^4 per well in a 96-well plate and stabilized for 12 hours. […] Cell viability was measured by the MTT method after 72 hours of treatment with each concentration of the compound in A549 cells.

As to `Cc1ccc(S(=O)(=O)N[C@@H](CC(=O)OC(C)(C)C)C(=O)N2CCOCC2)cc1` [Compound 37, (S)-tert-butyl 3-(4-methylphenylsulfonamido)-4-morpholino-4-oxobutanoate], the inhibition at 40 µM on AIMP2-DX2 worked out at 45 ± 7.8%. Further, in the data set on A549 cells, the “Cell Viability (% inhibition) (A549)” value is on record as 20.33%.

Consider `Cc1ccc(S(=O)(=O)N[C@@H](Cc2ccccc2)C(=O)N2CCOCC2)cc1` [Compound 38, (S)-4-methyl-N-(1-morpholino-1-oxo-3-phenylpropan-2-yl)benzenesulfonamide], for which the inhibition at 40 µM on AIMP2-DX2 was 32.3 ± 2.6%. Also, in the data set with A549 cells, the “Cell Viability (% inhibition) (A549)” value turned out to be 15.14 ± 1.24%.

With `Cc1ccc(S(=O)(=O)N[C@@H](CO)C(=O)N2CCOCC2)cc1` [Compound 39, (S)—N-(3-hydroxy-1-morpholino-1-oxopropan-2-yl)-4-methylbenzenesulfonamide], the inhibition at 40 µM at AIMP2-DX2 was 7.7 ± 11.2%. Moreover, the “Cell Viability (% inhibition) (A549)” value with A549 cells is on record as −2.43 ± 0.94%.

As for `Cc1ccc(S(=O)(=O)N[C@H](C(=O)N2CCOCC2)C(C)C)cc1` [Compound 40, (S)-4-methyl-N-(3-methyl-1-morpholino-1-oxobutan-2-yl)benzenesulfonamide], the inhibition at 40 µM on AIMP2-DX2 is 31.3 ± 10.3%. Besides, the “Cell Viability (% inhibition) (A549)” value with A549 cells is reported as −5.41 ± 6.12%.

Regarding `Cc1ccc(S(=O)(=O)N[C@@H](CS)C(=O)N2CCOCC2)cc1` [Compound 41, (R)—N-(3-mercapto-1-morpholino-1-oxopropan-2-yl)-4-methylbenzenesulfonamide], the inhibition at 40 µM at AIMP2-DX2 turned out to be 52.5 ± 5.6%. The “Cell Viability (% inhibition) (A549)” value in the data set with A549 cells was found to be 12.16 ± 6.14%.

With `Cc1ccc(S(=O)(=O)N[C@H](C(=O)Nc2ccc(N3CCOCC3)cc2)[C@H](C)O)cc1` [Compound 42, (2S,3S)-3-hydroxy-2-(4-methylphenylsulfonamido)-N-(4-morpholinophenyl)butanamide], the inhibition at 40 µM at AIMP2-DX2 is -12.8 ± 10.6%. Also, the “Cell Viability (% inhibition) (A549)” value in the data set on A549 cells came out at 13.24 ± 6.93%.

Regarding `CC[C@H](C)[C@H](NS(=O)(=O)c1ccc(C)cc1)C(=O)Nc1ccc(N2CCOCC2)cc1` [Compound 43, (2S,3S)-3-methyl-2-(4-methylphenylsulfonamido)-N-(4-morpholinophenyl)pentanamide], the inhibition at 40 µM at AIMP2-DX2 was found to be 42.9 ± 3.9%. In addition, in the data set with A549 cells, the “Cell Viability (% inhibition) (A549)” value is reported as 17.08 ± 7.96%.

As for `Cc1ccc(S(=O)(=O)N[C@@H](Cc2cc3ccccc3[nH]2)C(=O)Nc2ccc(N3CCOCC3)cc2)cc1` [Compound 46, (S)-3-(1H-indol-2-yl)-2-(4-methylphenylsulfonamido)-N-(4-morpholinophenyl) propanamide], the “DX-Nanoluciferase activity (40 μM)” value on AIMP2-DX2 turned out to be 67.1 ± 10.8. The “Cell Viability (% inhibition) (A549)” value in the data set with A549 cells is given as 61.35 ± 10.27%.

Consider `Cc1ccc(S(=O)(=O)N[C@@H](Cc2cn(C)c3ccccc23)C(=O)Nc2ccc(N3CCOCC3)cc2)cc1` [Compound 47, (S)-3-(1-methyl-1H-indol-3-yl)-2-(4-methylphenylsulfonamido)-N-(4-morpholinophenyl) propanamide], for which, on AIMP2-DX2, the “DX-Nanoluciferase activity (40 μM)” value stood at 38.20 ± 7.73. The “Cell Viability (% inhibition) (A549)” value in the data set on A549 cells is 64.95 ± 2.84%.

With `Cc1ccc(S(=O)(=O)N[C@@H](CC(C)C)C(=O)OCc2ccccc2)cc1` [Compound 49, (S)-benzyl 4-methyl-2-(4-methylphenylsulfonamido)pentanoate], on AIMP2-DX2, the inhibition at 40 µM came to 43.1 ± 6.46%. Besides, the “Cell Viability (% inhibition) (A549)” value in the data set with A549 cells turned out to be 96.77 ± 0.70%.

For `Cc1ccc(C(=O)N[C@@H](CC(C)C)C(=O)OCc2ccccc2)cc1` [Compound 50, (S)-benzyl 4-methyl-2-(4-methylbenzamido)pentanoate], the inhibition at 40 µM on AIMP2-DX2 is 65.9 ± 4%. For the same molecule, the “Cell Viability (% inhibition) (A549)” value in the data set with A549 cells turned out to be 75.41 ± 3.28%.

As for `CC(C)C[C@H](NC(=O)c1ccc(C(C)(C)C)cc1)C(=O)OCc1ccccc1` [Compound 51, (S)-benzyl 2-(4-tert-butylbenzamido)-4-methylpentanoate], the inhibition at 40 µM at AIMP2-DX2 stood at 63.5 ± 4.5%. In addition, the “Cell Viability (% inhibition) (A549)” value in the data set on A549 cells was 11.62 ± 4.29%.

As to `CC(C)C[C@H](NC(=O)c1ccc2c(c1)OCO2)C(=O)OCc1ccccc1` [Compound 52, (S)-benzyl 2-(benzo[d][1,3]dioxole-5-carboxamido)-4-methylpentanoate], the inhibition at 40 µM on AIMP2-DX2 was -5.6 ± 5.2%. Besides, the “Cell Viability (% inhibition) (A549)” value with A549 cells is reported as 64.59 ± 5.15%.

Regarding `CC(C)C[C@H](NC(=O)c1ccc(NC(=O)OC(C)(C)C)cc1)C(=O)OCc1ccccc1` [Compound 53, (S)-benzyl 2-(4-(tert-butoxycarbonylamino)benzamido)-4-methylpentanoate], at AIMP2-DX2, the inhibition at 40 µM was 43.7 ± 9.9%. For the same molecule, the “Cell Viability (% inhibition) (A549)” value with A549 cells came to 49.19 ± 13.33%.

As to `CC(C)C[C@H](NC(=O)CCS(=O)(=O)c1ccccc1)C(=O)OCc1ccccc1` [Compound 54, (S)-benzyl 4-methyl-2-(3-(phenylsulfonyl)propanamido)pentanoate], on AIMP2-DX2, the “DX-Nanoluciferase activity (40 μM)” value was 33.7 ± 4.3. The “Cell Viability (% inhibition) (A549)” value in the data set with A549 cells amounted to 84.05 ± 2.61%.

On to `CC(C)C[C@H](NC(=O)Nc1ccccc1)C(=O)N1CCOCC1` [Compound 56, (S)-1-(4-Methyl-1-morpholino-1-oxopentan-2-yl)-3-phenylurea], for which the inhibition at 40 µM on AIMP2-DX2 came out at 33 ± 10.7%. Further, the “Cell Viability (% inhibition) (A549)” value in the data set with A549 cells was determined as 32.07%.

For `CC(C)C[C@H](NC(=O)c1ccc(C(C)(C)C)cc1)C(=O)N1CCOCC1` [Compound 57, (S)-4-tert-Butyl-N-(4-methyl-1-morpholino-1-oxopentan-2-yl)benzamide], the inhibition at 40 µM at AIMP2-DX2 worked out at 63.8 ± 11%. Also, in the data set with A549 cells, the “Cell Viability (% inhibition) (A549)” value is reported as −4.86 ± 4.95%.

Take `CC(C)C[C@H](NC(=O)CCS(=O)(=O)c1ccccc1)C(=O)N1CCOCC1` [Compound 58, (S)—N-(4-Methyl-1-morpholino-1-oxopentan-2-yl)-3-(phenylsulfonyl)propanamide]: at AIMP2-DX2, the inhibition at 40 µM worked out at 63.1 ± 4.5%. For the same molecule, the “Cell Viability (% inhibition) (A549)” value in the data set with A549 cells was −0.81 ± 4.95%.

With `CC(C)C[C@H](NC(=O)c1ccc(C(C)(C)C)cc1)C(=O)Nc1ccc(N2CCOCC2)cc1` [Compound 59, (S)-4-tert-Butyl-N-(4-methyl-1-(4-morpholinophenylamino)-1-oxopentan-2-yl)benzamide], the inhibition at 40 µM on AIMP2-DX2 was determined as 45.7 ± 8.28%. For the same molecule, the “Cell Viability (% inhibition) (A549)” value with A549 cells is 90.03 ± 0.97%.

Take `CC(C)C[C@H](NC(=O)c1ccc2c(c1)OCO2)C(=O)Nc1ccc(N2CCOCC2)cc1` [Compound 60, (S)—N-(4-Methyl-1-(4-morpholinophenylamino)-1-oxopentan-2-yl)benzo[d][1,3]dioxole-5-carboxamide]: on AIMP2-DX2, the inhibition at 40 µM was determined as 35.7 ± 10.2%. For the same molecule, the “Cell Viability (% inhibition) (A549)” value with A549 cells stood at 9.46 ± 9.67%.

For `CC(C)C[C@H](NC(=O)CCS(=O)(=O)c1ccccc1)C(=O)Nc1ccc(N2CCOCC2)cc1` [Compound 61, (S)-4-Methyl-N-(4-morpholinophenyl)-2-(3-(phenylsulfonyl)propanamido)pentanamide], the inhibition at 40 µM on AIMP2-DX2 is 60.3 ± 4.8%. Besides, the “Cell Viability (% inhibition) (A549)” value in the data set with A549 cells was −1.25 ± 3.63%.

Take `Cc1cc(C)cc(S(=O)(=O)N[C@@H](Cc2c[nH]c3ccccc23)C(=O)Nc2ccc(N3CCOCC3)cc2)c1` [Compound 66, (S)-2-(3,5-Dimethylphenylsulfonamido)-3-(1H-indol-3-yl)-N-(4 morpholinophenyl)propanamide]: the inhibition at 40 µM at AIMP2-DX2 stood at 42.4 ± 3.97%. For the same molecule, in the data set on A549 cells, the “Cell Viability (% inhibition) (A549)” value is 77.25 ± 0.82%.

As for `O=C(Nc1ccc(N2CCOCC2)cc1)[C@H](Cc1c[nH]c2ccccc12)NS(=O)(=O)c1ccc(F)cc1` [Compound 67, (S)-2-(4-Fluorophenylsulfonamido)-3-(1H-indol-3-yl)-N-(4-morpholinophenyl)propanamide], on AIMP2-DX2, the inhibition at 40 µM was 44.5 ± 14.2%. Besides, the “Cell Viability (% inhibition) (A549)” value in the data set with A549 cells worked out at 69.20 ± 2.10%.

`O=C(Nc1ccc(N2CCOCC2)cc1)[C@H](Cc1c[nH]c2ccccc12)NS(=O)(=O)c1ccc(C(F)(F)F)cc1` [Compound 68, (S)-3-(1H-indol-3-yl)-N-(4-morpholinophenyl)-2-(4-(trifluoromethyl)phenylsulfon-amido)propanamide]: the “DX-Nanoluciferase activity (40 μM)” value at AIMP2-DX2 is given as 48.06 ± 6.78. For the same molecule, the “Cell Viability (% inhibition) (A549)” value in the data set with A549 cells was found to be 76.90 ± 0.51%.

Turning to `Cc1ccc(S(=O)(=O)N[C@@H](Cc2c[nH]c3ccc(O)cc23)C(=O)Nc2ccc(N3CCOCC3)cc2)cc1` [Compound 69, (S)-3-(5-Hydroxy-1H-indol-3-yl)-2-(4-methylphenylsulfonamido)-N-(4-morpholinophenyl)propanamide], the inhibition at 40 µM on AIMP2-DX2 was found to be 48.4 ± 11.6%. In addition, in the data set on A549 cells, the “Cell Viability (% inhibition) (A549)” value was 20.62 ± 5.14%.

With `Cc1ccc(S(=O)(=O)N[C@@H](Cc2c[nH]c3ccccc23)C(=O)N2CCOCC2)cc1` [Compound 70, (S)—N-(3-(1H-indol-3-yl)-1-morpholino-1-oxopropan-2-yl)-4-methylbenzenesulfonamide], the inhibition at 40 µM at AIMP2-DX2 worked out at 59.7 ± 3.49%. Further, in the data set with A549 cells, the “Cell Viability (% inhibition) (A549)” value is recorded as 23.61 ± 2.18%.

For the molecule `Cc1ccc(S(=O)(=O)N[C@@H](Cc2c[nH]c3ccccc23)C(=O)Nc2ncc(N3CCOCC3)s2)cc1` [Compound 71, (S)-3-(1H-indol-3-yl)-2-(4-methylphenylsulfonamido)-N-(5-morpholinothiazol-2-yl)propan amide], the “DX-Nanoluciferase activity (40 μM)” value at AIMP2-DX2 stood at 54.64 ± 13.30. Besides, in the data set on A549 cells, the “Cell Viability (% inhibition) (A549)” value worked out at 72.71 ± 0.97%.

With `Cc1ccc(S(=O)(=O)N[C@@H](Cc2c[nH]c3ccccc23)C(=O)Nc2ccc(N3CCOCC3)cc2)c(C)c1` [Compound 72, (S)-2-(2,4-Dimethylphenylsulfonamido)-3-(1H-indol-3-yl)-N-(4-morpholinophenyl)propanamide], the inhibition at 40 µM on AIMP2-DX2 was 21.5 ± 7.62%. Further, the “Cell Viability (% inhibition) (A549)” value in the data set with A549 cells stood at 73.73 ± 0.78%.
